Patent publication US20250354188A1, “METHOD FOR SYNTHESIZING CELOSIANIN II, METHOD FOR SYNTHESIZING BETAXANTHIN, AMYLOID-ß POLYMERIZATION INHIBITOR OR THERAPEUTIC OR PROPHYLACTIC AGENT FOR ALZHEIMER'S DISEASE, AMYLOID PEPTIDE AGGREGATION INHIBITOR, AND HIV-1 PROTEASE ACTIVITY INHIBITOR” (priority 2019, published 2025)

What was measured:
[1] = Stability of betalain pigment aqueous solutions at 37° C.; assay type: physicochemical; conditions: for red color after treatment: 4 days at 37° C.
Experimental: An aqueous solution of each of celosianin II, amaranthin, and betanin was evaluated for its stability at 37° C.
For each of betanin, amaranthin, and celosianin II, a 1 mM aqueous solution was prepared, and left to stand still in an incubator at 37° C. Absorbances at 536 nm on days 0, 1, 2, 3, and 4 were measured, and for the resultant values, relative amounts with respect to the absorbance on day 0 were calculated.

[2] = tested on: Transgenic nematodes (CL2006) expressing human amyloid-β 1-42, Aβ42; assay: Paralysis test using transgenic nematodes expressing amyloid peptide; assay type: in vivo, Caenorhabditis elegans; conditions: fed with 50 μM betanin, compared to group fed with dextrin (control)
Experimental: In a transgenic nematode expressing an amyloid peptide, aggregates of the amyloid peptide are formed in the body along with its growth period, and the nematode is paralyzed. In view of this, whether feeding with betanin changed a paralysis ratio was evaluated.
Nematodes were grown using NGM plates (nematode growth medium), and grown using Escherichia coli (OP50 strain) as food under the condition of 15° C. unless otherwise indicated.
Transgenic nematodes (CL2006) expressing an amyloid peptide (human amyloid-β 1-42, Aβ42) were obtained from the Caenorhabditis Genetics Center (CGC), USA. The CL2006 expresses Aβ42 in the cells of the body wall muscle of the nematode, and then aggregation of the amyloid peptide occurs in the muscle. […]
The individuals grown to adults through the synchronized growth were transferred to NGM plates containing various concentrations (2 μM, 10 μM, and 50 μM) of food having mixed therein dextrin or betanin, and were grown. After the nematodes had been transferred, the nematodes were each evaluated for paralysis at constant intervals. […]
Paralysis was evaluated on the basis of the behavior of the nematode after the nose of the nematode had been lightly tapped with a platinum wire.

β-Amyloid (1-40) = target: T1, β-Amyloid (1-40) (Homo sapiens, UniProt P05067); assay: Amyloid-β polymerization inhibitory activity in Thioflavin T (ThT) assay; assay type: biochemical; conditions: sample 50 μM final; ThT fluorescence for 4 hours
T1 construct: SensoLyte Thioflavin T β-Amyloid (1-40) Aggregation Kit (ANASPEC); purchased ANASPEC
T1 sequence (P05067 672-711 limits assumed): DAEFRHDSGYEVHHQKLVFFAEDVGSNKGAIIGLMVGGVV
Experimental: ThT assay involved evaluating polymerization using SensoLyte Thioflavin T β-Amyloid (1-40) Aggregation Kit (ANASPEC) in accordance with an accompanying protocol.
As an apparatus used for measurement, Varioskan LUX (Thermo Fisher Scientific) was used, and fluorescence derived from the polymerization of amyloid-β was measured for 4 hours at intervals of 5 minutes. A sample was stirred for 15 seconds before each measurement and subjected to the measurement. An excitation wavelength of 440 nm and a detection wavelength of 484 nm were used.
The sample used for the ThT assay was prepared to have a final concentration of 50 μM before being used for the experiment. Tannic acid (Ono, K., Hasegawa, K., Naiki, H. & Yamada, M. (2004) Anti-amyloidogenic activity of tannic acid and its activity to destabilize Alzheimer's beta-amyloid fibrils in vitro. Biochim Biophys Acta 1690, 193-202.) was used as a control of an inhibitor.
The sample used for the ThT assay was prepared to have a final concentration of 50 μM before being used for the experiment. An extracted sample from the BY-2 cells having an empty vector introduced therein (VC) and water (PC) in place of a sample were used as controls. In addition, betanin and curcumin were used as positive controls. Curcumin is a plant-derived substance reported to have amyloid-β polymerization inhibitory activity (Yang F, Lim GP, Begum AN, et al. Curcumin inhibits formation of amyloid betaoligomers and fibrils, binds plaques, and reduces amyloid in vivo. J BiolChem. 2005; 280(7): 5892-5901. doi:10.1074/jbc.M404751200).

[3] = target: T2, human amyloid-β 1-40, Aβ40 (Homo sapiens, UniProt P05067); assay: Observation of amyloid peptide aggregation using transmission electron microscope; assay type: biochemical; conditions: 25 μM Aβ40 + 50 μM sample, 5 days; for effect on polymerization and amorphous aggregation of amyloid fibrils (conclusion from TEM): 37° C.; for aggregation of the amyloid peptide observed by TEM: PBS pH 7.4, 37° C., dark
T2 construct: A lyophilized amyloid peptide (human amyloid-β 1-40, Aβ40) was purchased from Peptide Institute, Inc; purchased Peptide Institute, Inc
T2 sequence (P05067 672-711 limits assumed): as above
Experimental: A lyophilized amyloid peptide (human amyloid-β 1-40, Aβ40) was purchased from Peptide Institute, Inc., dissolved as a stock solution at a concentration of 1 mM using dimethyl sulfoxide, and stored at-20° C. until use.
As a betaxanthin, the betaxanthin extracted from the betaxanthin-producing BY2 cells (FIG. 10) was used.
With regard to reaction conditions, Aβ40 and a sample (betanin, amaranthin, celosianin II, ferulic acid, or the betaxanthin) were prepared with PBS (pH 7.4) so as to have a final concentration of 25 μM and a final concentration of 50 μM, respectively. As a control, distilled water was used in place of the sample. The prepared sample was left to stand still in a dark place at 37° C. for 5 days.
The sample after the reaction was stained on a grid mesh for a transmission electron microscope by adding about 2 μL of a 2% uranyl acetate solution thereto. After the solution had dried, the aggregation of the amyloid peptide was observed using a transmission electron microscope (Hitachi 7650 TEM).

[4] = target: T3, recombinant HIV-1 protease (Human immunodeficiency virus type 1 group M subtype B, UniProt P04585); assay: HIV-1 protease inhibitory activity (residual substrate peptide by HPLC); assay type: biochemical
T3 construct: A recombinant HIV-1 protease (ab84117) from Abcam was used as an HIV-1 protease; purchased Abcam ab84117
Experimental: A recombinant HIV-1 protease (ab84117) from Abcam was used as an HIV-1 protease, and an HIV-1 protease substrate (Lys-Ala-Arg-Val-Nle-p-nitro-Phe-Glu-Ala-Nle amide) from Sigma-Aldrich was used as a substrate peptide for the HIV-1 protease. HIV-1 protease activity evaluation was performed with reference to a previously reported method (Boso, G., Orvell, C. and Somia, N.V. (2015) The nature of the N-terminal amino acid residue of HIV-1 RNase H is critical for the stability of reverse transcriptase in viral particles. J. Virol. 89, 1286-1297.). Amaranthin, betanin, or celosianin II was added to 16 pmol of the HIV-1 protease and 4 nmol of the HIV-1 protease substrate, a buffer (25 mM NaCl, 25 mM Na2HPO4, 1 mM dithiothreitol, pH 4.7) was added so that the amount of a reaction liquid was 30 μl, and a reaction was performed at 25° C. for 2 hours. With regard to the addition amount of amaranthin, betanin, or celosianin II, amaranthin, betanin, and celosianin II were each added at the ratio of a 100-fold amount with respect to the amount of the HIV-1 protease. For celosianin II, the ratios of 25-and 50-fold amounts were further evaluated. An HIV-1 inhibitor saquinavir was used as a positive control.
After the reaction, the reaction liquid was measured for the amount of the residual substrate peptide through use of HPLC, and a residual ratio with respect to the substrate before the reaction was calculated. For the HPLC, LC-20AD from Shimadzu was utilized, and a Shim-pack GWS C18 column (5 μm; 200 mm×4.6 mm i.d.; Shimadzu GLC) was used as an analytical column. For an analytical solvent system, 0.05% TFA in water was used as solvent A and 0.05% TFA in acetonitrile was used as solvent B. An HPLC program was set to a linear gradient from 0% of solvent B at 0 minutes to 50% of solvent B at 50 minutes, and the HPLC was performed at a flow rate of 0.5 mL/min and 25° C. Analysis was performed with an analytical wavelength being set to 260 nm allowing the HIV-1 protease substrate peptide to be detected.

SMILES | red color after treatment ([1]; 1 mM aqueous solution) | paralysis ratio [2] | amyloid-β polymerization inhibitory activity (β-Amyloid (1-40)) | effect on polymerization and amorphous aggregation of amyloid fibrils (conclusion from TEM) [3] | aggregation of the amyloid peptide observed by TEM [3] | residual amounts of the betalain pigments (absorbance at 536 nm relative to day 0) ([1]; 1 mM aqueous solution, 37° C., days 0 to 4) | stability of aqueous solution ([1]; 37° C., compared to amaranthin and betanin) | dependence of HIV-1 protease inhibitory activity on amount ([4]; 25-, 50- and 100-fold amounts with respect to HIV-1 protease) | HIV-1 protease activity inhibitory effect relative to amaranthin ([4]; 25-fold celosianin II vs 100-fold amaranthin) | HIV-1 protease inhibitory activity ([4]; celosianin II added in 25-fold amount with respect to HIV-1 protease, 25° C., 2 hours, pH 4.7)
O=C(O)C1=C/C(=C/C=[N+]2/c3cc(O)c(OC4OC(CO)[C@@H](O)C(O)C4O)cc3CC2C(=O)[O-])CC(C(=O)O)N1 (stereo in doubt) [betanin] | disappeared | significant amelioration (reduction) in paralysis ratio | comparable to or higher than that of the existing inhibitor (tannic acid) | inhibiting both of the polymerization and amorphous aggregation of amyloid fibrils | only short amyloid fibrils were observed |  |  |  |  | 
O=C(O)C1=C/C(=C/C=[N+]2c3cc(O)c(O[C@@H]4O[C@H](CO)[C@@H](O)[C@H](O)[C@H]4O[C@@H]4O[C@H](C(=O)O)[C@@H](O)[C@H](O)[C@H]4O)cc3C[C@H]2C(=O)[O-])C[C@@H](C(=O)O)N1 [amaranthin] | disappeared |  | possessed inhibitory activity, though its effect was low as compared to celosianin II and betanin | inhibiting both of the polymerization and amorphous aggregation of amyloid fibrils | only short amyloid fibrils were observed |  |  |  |  | 
COc1cc(/C=C/C(=O)O[C@H]2[C@H](O[C@H]3[C@H](Oc4cc5c(cc4O)[N+](=C/C=C4/C=C(C(=O)O)N[C@H](C(=O)O)C4)[C@H](C(=O)[O-])C5)O[C@H](CO)[C@@H](O)[C@@H]3O)O[C@H](C(=O)O)[C@@H](O)[C@@H]2O)ccc1O [celosianin II] | still exhibited a red color |  | comparable to or higher than that of the existing inhibitor (tannic acid) | inhibiting both of the polymerization and amorphous aggregation of amyloid fibrils | only short amyloid fibrils were observed | more abundant than amaranthin and betanin | stable | amount-dependent | 4 times | comparable to that in the case where a 100-fold amount of amaranthin was added
COc1cc(/C=C/C(=O)O)ccc1O [ferulic acid] |  |  | weaker than those of celosianin II, the betanin pigment, and amaranthin | inhibiting both of the polymerization and amorphous aggregation of amyloid fibrils | only short amyloid fibrils were observed |  |  |  |  | 
